ChEMBL document CHEMBL1123922

Experiments:
[1] = molecular target: Prostaglandin G/H synthase 1 (Ovis aries) (UniProt P05979); assay: Inhibition of PGH synthase was determined by measuring oxygen consumption with a Clark oxygen electrode at 25 uM; design: scale not given: the % may be the effect or the level left
[2] = molecular target: Prostaglandin G/H synthase 1 (Ovis aries) (UniProt P05979); assay: Inhibition of PGH synthase by measuring oxygen consumption with a Clark oxygen electrode at 100 uM; design: scale not given: the % may be the effect or the level left

Chain of Prostaglandin G/H synthase 1 (Ovis aries) (P05979 whole entry, looked up): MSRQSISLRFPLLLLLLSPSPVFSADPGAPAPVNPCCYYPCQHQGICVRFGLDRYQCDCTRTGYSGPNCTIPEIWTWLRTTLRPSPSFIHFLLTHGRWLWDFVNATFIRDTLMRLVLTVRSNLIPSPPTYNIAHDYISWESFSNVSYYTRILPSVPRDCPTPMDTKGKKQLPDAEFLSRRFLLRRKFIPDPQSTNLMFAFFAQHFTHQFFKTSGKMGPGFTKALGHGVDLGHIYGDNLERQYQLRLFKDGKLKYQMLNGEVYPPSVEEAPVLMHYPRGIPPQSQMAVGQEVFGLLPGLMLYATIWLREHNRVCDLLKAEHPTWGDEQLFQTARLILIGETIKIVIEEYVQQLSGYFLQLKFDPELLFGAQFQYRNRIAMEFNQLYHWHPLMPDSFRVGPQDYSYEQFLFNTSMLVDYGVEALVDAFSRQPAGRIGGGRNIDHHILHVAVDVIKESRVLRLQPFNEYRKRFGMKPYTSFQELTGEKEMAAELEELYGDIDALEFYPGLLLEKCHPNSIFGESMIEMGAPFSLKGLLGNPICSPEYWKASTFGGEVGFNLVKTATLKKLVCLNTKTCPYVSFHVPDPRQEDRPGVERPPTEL

Control [1] [%] | Control [2] [%] | SMILES
49 | 21 | CCC(C)=C1C(=O)N(c2ccccc2)N(c2ccccc2)C1=O
73 | 31 | CC(=C1C(=O)N(c2ccccc2)N(c2ccccc2)C1=O)c1ccccc1
35 | 10 | O=C1C(CC#CCCl)C(=O)N(c2ccccc2)N1c1ccccc1
– | 96 | O=C1C(=C/C=C/c2ccccc2)C(=O)N(c2ccccc2)N1c1ccccc1
23 | 5 | CC(C)(C#N)C1C(=O)N(c2ccccc2)N(c2ccccc2)C1=O
89 | 63 | CC(C)=C1C(=O)N(c2ccccc2)N(c2ccccc2)C1=O
78 | 42 | O=C(NCCC1C(=O)N(c2ccccc2)N(c2ccccc2)C1=O)Oc1ccccc1
– | 90 | O=C(CCl)NCCC1C(=O)N(c2ccccc2)N(c2ccccc2)C1=O
– | 79 | O=C(CBr)NCCC1C(=O)N(c2ccccc2)N(c2ccccc2)C1=O
29 | 18 | CCCC=C1C(=O)N(c2ccccc2)N(c2ccccc2)C1=O
